Laboratory results: patent US20230034660A1, “PEPTIDES THAT ENHANCE NMDA RECEPTOR FUNCTION AND USE THEREOF” (University of Pittsburgh - Of the Commonwealth System of …, priority 2019, published 2023)

Assays:
[1] = tested on: NMDAR; test: NMDAR EPSCs in DCN cartwheel cells in brain slices, ZX1 potentiation; type: cell-based, mice; details: ZX1 100 μM; for ZX1 potentiation of NMDAR-mediated synaptic currents, 20 Hz: slices treated with peptide 3 μM at least 1 hour, parallel fibers stimulated at 20 Hz, +40 mV
[2] = tested on: presynaptic release of glutamate; test: Paired pulse ratio and coefficient of variance of AMPAR responses (release probability); type: cell-based, mice; details: peptide-treated slices; for paired pulse ratio (PPR): AMPAR EPSCs, 50 millisecond interval; for coefficient of variance (CV): AMPAR responses
Procedure: For brain slice recordings, whole-cell recordings of NMDAR EPSCs in slice DCN cartwheel cells were obtained with micropipettes (3-6 MΩ) containing 128 mM Cs(CH3O3S), 4 mM MgCl2·6H2O, 4 mM Na2ATP, 10 mM HEPES, 0.3 mM Tris-GTP, 10 mM Tris-phosphocreatine, 1 mM CsEGTA, 1 mM, QX-314, 3 mM sodium ascorbate, pH=˜7.2, 300 mOsm. Cartwheel cells were identified by the presence of complex spikes (Zhang and Oertel, 1993; Golding and Oertel, 1997; Tzounopoulos et al., 2004) in cell-attached configuration before break-in or in response to current injections in current-clamp mode after break-in. NMDAR EPSCs were recorded in voltage clamp mode, at a holding potential of +40 mV, in the presence of DNQX (20 μM, AMPA and kainate receptor antagonist), SR95531. (20 μM, GABAAR antagonist), and strychnine (1 μM, GlyR antagonist), ZX1 (100 μM) was included in the pipette in experiments where noted. Whole-cell recordings of AMPAR EPSCs were obtained with micropipettes containing […], 4.5 mM MgCl2·6 H2O, 14 mM Tris-phosphocreatine, 9 mM HEPES, 0.1 mM EGTA, 4 mM Na2ATP, 0.3 mM Tris-GTP, 10 mM sucrose, pH=7.3, 295 mOsm. AMPA EPSCs were recorded in voltage clamp mode at a holding potential of −70 mV in the presence of SR9551. (20 μM, GABAAR antagonist) and strychnine (1 μM, GlyR antagonist). Both NMDAR and […] EPSCs were evoked using an Isoflex stimulator (A.M.P.I. 0.1 ms pulses) stimulating parallel fibers with voltage pulses through a theta glass electrode. Stimulus intensity was adjusted to a level that consistently evoked stable responses. For paired pulse experiments, inter-stimulus interval was 50 milliseconds. Once a stable response was established, ZX1 (100 μM) was added to the recording solution to measure the effect of zinc chelation on EPSCs. The series resistance was not compensated because the currents measured were relatively small, therefore there was minimum voltage clamp error. The series resistance was monitored during the recording by delivering −5 mV voltage steps for 50 milliseconds for each sweep. The peak current value (ΔIpeak) generated immediately after the step in the command potential was used to calculate series resistance (Rseries) using the following formula: Rseries=−5 mv/ΔIpeak. […] All values reported are animal-based values, in cases where multiple cells were recorded from the same animal preparation, the average of cells is presented (Lazic et al., 2018). […]
Next, it was evaluated whether a change in presynaptic release of glutamate could contribute to the observed actions of N2AZ on NMDAR-mediated synaptic currents. […] To measure PPR, two stimuli were given in rapid succession and the ratio of the second EPSC to the first was calculated. […]

[3] = tested on: NMDAR; test: NMDAR Lev-EPSCs in auditory cortex L2/3 principal neurons, ZX1 effect; type: cell-based, ICR mice; details: auditory cortex slices incubated with peptide or scramble; 100 μM ZX1; +40 mV
Source text: (FIG. 11A) Left: schematic illustration of stereotaxic injections in ICR mice, of retrograde microspheres of different colors to label corticocallosal (CCal) and corticollicular (CCol) neurons. CCol neurons were used to identify AC, and viral vector (AAV) for expression of channel rhodopsin (ChR2) in AC L2/3 PNs. Right: schematic illustrating slice electrophysiology experiment involving photostimulation of ChR2 expressing AC L2/3 PNs while recording from adjacent L2/3 PNs. (FIG. 11B) Top: representative traces of L2/3 PN NMDAR Lev-EPSCs (at +40 mV) evoked by a 0.15-ms duration pulse photostimulation of adjacent PNs in control and after 100 μM ZX1, in slices incubated with scramble. Bottom: same as the top panel in slices incubated with the peptide. (FIG. 11C) Time course of the average amplitude of NMDAR Lev-EPSCs before and after ZX1 in slices incubated with scramble and peptide. During the entire experiment application of DNQX and SR 95531 blocked AMPARs and GABAARs, correspondingly. (FIG. 11D) Average effect of ZX1 on L2/3 PN NMDAR Lev-EPSCs amplitudes normalized to control. Peptide ZX1 effect=99.02±3.8%, P=0.521, paired 1-tests, n=3 cells from two mice: Scramble ZX1 effect=159.4±15.8%, P=0.068, paired t-tests, n=4 cells from three mice. The difference is statistically significant at P=0.034, Unpaired t-test. Asterisk denotes a statistically significant difference at P<0.05. […]

## SNLSDSYDR [scN2AZ, reference compound]
[1]
  ZX1 potentiation of NMDAR-mediated synaptic currents, 20 Hz: 47.30±10.14%
[2]
  paired pulse ratio (PPR): 2.18±0.26
  coefficient of variance (CV): 0.28±0.030
[3]
  ZX1 effect on L2/3 PN NMDAR Lev-EPSCs amplitudes normalized to control: 159.4±15.8%

## NDSYLRSSL [Peptide N2AZ]
[1]; N2AZ-treated slices (3 μM) from WT littermate controls, 20 Hz
  ZX1 potentiation of NMDAR-mediated synaptic currents, WT littermates: 5.60±4.38%
[1]; N2AZ-treated slices (3 μM) from ZnT3 null mice, 20 Hz
  ZX1 potentiation of NMDAR-mediated synaptic currents, ZnT3 KO: 11.9±6.90%
[1]
  ZX1 potentiation of NMDAR-mediated synaptic currents, 20 Hz: 19.39±5.82%
[1]; slices treated with peptide 3 μM, 100 Hz stimulation frequency
  ZX1 potentiation of NMDAR EPSCs, 100 Hz: 1.95±4.33%
[2]
  paired pulse ratio (PPR): 2.29±0.07
  coefficient of variance (CV): 0.26±0.031
[3]
  ZX1 effect on L2/3 PN NMDAR Lev-EPSCs amplitudes normalized to control: 99.02±3.8%
